pEC50: −log10 of the molar value. The source made the active and inactive calls. No cut-off for these calls is given here.
Legend:
[1] = tested on: BHK-21; test: Reduction in viral structure E protein expression in second round DENV-2 infected golden hamster BHK-21 cells assessed in new virions at 0.5 to 10 uM measured after 24 hrs by confocal microscopy relative to control; assay type: functional, cell-based; conditions: dengue virus type 2, dose 0.5-10 µM
[2] = tested on: BHK-21; test: Reduction in viral structure E protein expression in second round DENV-2 infected golden hamster BHK-21 cells assessed in new virions at 0.5 to 10 uM measured after 24 hrs by Western blot analysis relative to control; assay type: functional, cell-based; conditions: dengue virus type 2, dose 0.5-10 µM
[3] = Cytotoxicity against golden hamster BHK-21 cells incubated for 48 hrs by MTT assay; assay type: cell-based, Mesocricetus auratus
[4] = tested on: BHK-21; test: Binding affinity to RdRp domain of NS5 in DENV-2 infected in BHK-21 cells by isothermal titration calorimetry assay; conditions: dengue virus type 2
[5] = Reduction in viral structure E protein expression in DENV-2 infected golden hamster BHK-21 cells at 10 uM by Western blot analysis relative to control; assay type: functional, dengue virus type 2; conditions: Dengue virus
[6] = tested on: BHK-21; test: Reduction in viral structure E protein expression in DENV-2 infected golden hamster BHK-21 cells at 2.5 uM by Western blot analysis relative to control; assay type: functional, cell-based; conditions: dengue virus type 2
[7] = Selectivity index, ratio of CC50 for golden hamster BHK-21 cells EC50 for DENV-2 infected in BHK-21 cells; assay type: toxicity, cell-based; conditions: read-out: Selectivity Index
[8] = tested on: BHK-21; test: Binding affinity to MTase domain of NS5 in DENV-2 infected in BHK-21 cells by isothermal titration calorimetry assay; conditions: dengue virus type 2
[9] = tested on: dengue virus type 2; test: Antiviral activity against DENV-2 infected in BHK-21 cells assessed as cytopathic effect after 96 hrs by LDH assay; assay type: functional, organism-based; conditions: for pEC50: BHK-21, 96 h
[10] = tested on: dengue virus type 2; test: Antiviral activity against second round DENV-2 infected in BHK-21 cells assessed as reduction in new virion infectivity measured after 24 hrs by focus-forming assay; assay type: functional, organism-based

Compound	pEC50 [9]	further results
CC1(C)CC(=O)C2=C(C1)N(c1ccccc1)C(c1cccc(Br)c1)N(c1ccccc1)C2 (centres undefined)	5.88	inhibition [1]: Active; inhibition [2]: Active; CC50 at 48 h [3]: > 20 µM; Activity [4]: inactive; inhibition at 10 µM [5]: 100%; inhibition [6]: Active; selectivity ratio [7]: > 15.3; Activity [8]: inactive; Activity [9]: Dose-dependent effect; Activity [10]: Active
CC1(C)CC(=O)C2=C(C1)N(c1ccccc1)C(c1ccc(OC(C)(C)C)cc1)N(c1ccccc1)C2 (centres undefined)	5.58	
CC1(C)CC(=O)C2=C(C1)N(c1ccccc1)C(c1cccc(C(F)(F)F)c1)N(c1ccccc1)C2 (centres undefined)	5.88	CC50 at 48 h [3]: 17.9 µM; selectivity ratio [7]: 13.5
CC1(C)CC(=O)C2=C(C1)N(c1ccccc1)C(c1ccc(C(F)(F)F)cc1)N(c1ccccc1)C2 (centres undefined)	5.43	
CC1(C)CC(=O)C2=C(C1)N(c1ccc(Cc3ccccc3)cc1)C(c1ccc(Br)cc1)N(c1ccc(Cl)cc1)C2 (centres undefined)	< 4.70	
COc1ccc(C2N(c3ccccc3)CC3=C(CC(C)(C)CC3=O)N2c2ccccc2)cc1 (centres undefined)	5.12	
CC1(C)CC(=O)C2=C(C1)N(c1ccccc1)C(c1ccc([N+](=O)[O-])cc1)N(c1ccccc1)C2 (centres undefined)	5.43	
CC1(C)CC(=O)C2=C(C1)N(c1ccccc1)C(c1cccc([N+](=O)[O-])c1)N(c1ccccc1)C2 (centres undefined)	5.55	
CC1(C)CC(=O)C2=C(C1)N(c1ccccc1)C(c1ccc(C#N)cc1)N(c1ccccc1)C2 (centres undefined)	5.13	
CC1(C)CC(=O)C2=C(C1)N(c1ccccc1)C(c1cccs1)N(c1ccccc1)C2 (centres undefined)	< 4.70	
CC1(C)CC(=O)C2=C(C1)N(c1ccccc1)C(c1ccc(OC(F)(F)F)cc1)N(c1ccccc1)C2 (centres undefined)	5.60	
CC1(C)CC(=O)C2=C(C1)N(c1ccccc1)C(c1ccc3ccccc3c1)N(c1ccccc1)C2 (centres undefined)	< 4.70	
COc1cc(C2N(c3ccccc3)CC3=C(CC(C)(C)CC3=O)N2c2ccccc2)cc(OC)c1O (centres undefined)	< 4.70	
CC1(C)CC(=O)C2=C(C1)N(c1ccccc1)C(c1ccc(-c3ccccc3)cc1)N(c1ccccc1)C2 (centres undefined)	< 4.70	
CC1(C)CC(=O)C2=C(C1)N(Cc1ccccc1)C(c1ccccc1)N(Cc1ccccc1)C2 (centres undefined)	< 4.70	
Cc1ccc(C2N(c3ccccc3)CC3=C(CC(C)(C)CC3=O)N2c2ccccc2)s1 (centres undefined)	5.49	
CC(C)C1N(c2ccccc2)CC2=C(CC(C)(C)CC2=O)N1c1ccccc1 (centres undefined)	< 4.70	
CC1(C)CC(=O)C2=C(C1)N(c1ccccc1)C(c1ccc(O)cc1)N(c1ccccc1)C2 (centres undefined)	< 4.70	
CC(C)c1ccc(C2N(c3ccccc3)CC3=C(CC(C)(C)CC3=O)N2c2ccccc2)cc1 (centres undefined)	5.44	
CC1(C)CC(=O)C2=C(C1)N(c1ccccc1)C(c1ccc(C(C)(C)C)cc1)N(c1ccccc1)C2 (centres undefined)	5.06	
CC(C)Oc1ccc(C2N(c3ccccc3)CC3=C(CC(C)(C)CC3=O)N2c2ccccc2)cc1 (centres undefined)	5.30	
CCCCC1N(c2ccccc2)CC2=C(CC(C)(C)CC2=O)N1c1ccccc1 (centres undefined)	< 4.70	
COc1ccc(N2C3=C(CN(c4ccc(Cl)cc4)C2c2ccc(Br)cc2)C(=O)CC(C)(C)C3)cc1 (centres undefined)	5.59	CC50 at 48 h [3]: > 20 µM; selectivity ratio [7]: > 7.69
CC1(C)CC(=O)C2=C(C1)N(c1ccc(Oc3ccccc3)cc1)C(c1ccc(Br)cc1)N(c1ccc(Cl)cc1)C2 (centres undefined)	< 4.70	
CC1(C)CC(=O)C2=C(C1)N(c1ccccc1)C(c1ccc(Br)cc1)N(Cc1ccccc1)C2 (centres undefined)	< 4.70	
CC1(C)CC(=O)C2=C(C1)N(c1ccccc1)C(c1ccccc1Br)N(c1ccccc1)C2 (centres undefined)	5.41	
CC1(C)CC(=O)C2=C(C1)N(c1ccccc1)C(c1ccccc1)N(c1ccccc1)C2 (centres undefined)	< 4.70	
CC1(C)CC(=O)C2=C(C1)N(c1ccccc1)C(c1cccc3ccccc13)N(c1ccccc1)C2 (centres undefined)	5.41	
CC1(C)CC(=O)C2=C(C1)N(c1ccccc1)C(c1ccc(OCc3ccccc3)cc1)N(c1ccccc1)C2 (centres undefined)	5.58	

Continued, in another order:

pEC50 [9]	Compound	further results
< 4.70	CC1(C)CC(=O)C2=C(C1)N(c1ccccc1)C(c1ccc(Br)cc1)N(c1ccccc1Cl)C2 (centres undefined)	
< 4.70	CC1(C)CC(=O)C2=C(C1)N(c1ccccc1)C(c1ccc(Br)cc1)N(c1ccc(-c3ccccc3)cc1)C2 (centres undefined)	
4.87	CC1(C)CC(=O)C2=C(C1)N(c1ccc3ccccc3c1)C(c1ccc(Br)cc1)N(c1ccc(Cl)cc1)C2 (centres undefined)	
5.75	CC1(C)CC(=O)C2=C(C1)N(c1ccccc1)C(c1ccc(Br)cc1)N(c1ccc3ccccc3c1)C2 (centres undefined)	
5.26	CC(C)c1ccc(N2CC3=C(CC(C)(C)CC3=O)N(c3ccccc3)C2c2ccc(Br)cc2)cc1 (centres undefined)	
5.27	COc1ccc(N2CC3=C(CC(C)(C)CC3=O)N(c3ccccc3)C2c2ccc(Br)cc2)cc1 (centres undefined)	
5.55	CC1(C)CC(=O)C2=C(C1)N(c1ccccc1)C(c1ccc(Br)cc1)N(c1ccccc1)C2 (centres undefined)	CC50 at 48 h [3]: > 20 µM; selectivity ratio [7]: > 7.02
5.63	CC1(C)CC(=O)C2=C(C1)N(c1ccccc1)C(c1ccc(Br)cc1)N(c1ccc(Br)cc1)C2 (centres undefined)	
5.74	CC1(C)CC(=O)C2=C(C1)N(c1ccccc1)C(c1ccc(Br)cc1)N(c1ccc(OC(F)(F)F)cc1)C2 (centres undefined)	
5.72	CC1(C)CC(=O)C2=C(C1)N(c1ccccc1)C(c1ccc(Br)cc1)N(c1ccc(F)cc1)C2 (centres undefined)	CC50 at 48 h [3]: 10 µM; selectivity ratio [7]: 5.3
5.36	CC1(C)CC(=O)C2=C(C1)N(c1ccc(Cl)cc1)C(c1ccc(Br)cc1)N(c1ccc(Cl)cc1)C2 (centres undefined)	
5.40	CC1(C)CC(=O)C2=C(C1)N(c1ccccc1)C(c1ccc(Br)cc1)N(c1ccc(C(F)(F)F)cc1)C2 (centres undefined)	
< 4.70	CC1(C)CC(=O)C2=C(C1)N(c1ccccc1)C(c1ccc(F)cc1)N(c1ccccc1)C2 (centres undefined)	
5.27	CC1(C)CC(=O)C2=C(C1)N(c1ccccc1)C(c1ccc(Br)cc1)N(c1ccc(C(C)(C)C)cc1)C2 (centres undefined)	
5.22	CC1(C)CC(=O)C2=C(C1)N(c1ccccc1)C(c1ccc(Cl)cc1)N(c1ccccc1)C2 (centres undefined)	
< 4.70	CC1(C)CC(=O)C2=C(C1)N(c1ccc(-c3ccccc3)cc1)C(c1ccc(Br)cc1)N(c1ccc(Cl)cc1)C2 (centres undefined)	
5.25	CC1(C)CC(=O)C2=C(C1)N(c1cccc(Cl)c1)C(c1ccc(Br)cc1)N(c1ccc(Cl)cc1)C2 (centres undefined)	
5.86	CC1(C)CC(=O)C2=C(C1)N(c1ccccc1)C(c1ccc(Br)cc1)N(c1ccc(Cl)cc1)C2 (centres undefined)	CC50 at 48 h [3]: 12.7 µM; selectivity ratio [7]: 9.18
5.58	CC1(C)CC(=O)C2=C(C1)N(c1ccc(F)cc1)C(c1ccc(Br)cc1)N(c1ccc(Cl)cc1)C2 (centres undefined)	CC50 at 48 h [3]: > 20 µM; selectivity ratio [7]: > 7.58
5.33	CC1(C)CC(=O)C2=C(C1)N(c1ccccc1)C(c1ccc(Br)cc1)N(c1cccc(Cl)c1)C2 (centres undefined)	
5.73	CC1(C)CC(=O)C2=C(C1)N(c1ccccc1)C(c1ccc(Br)cc1)N(c1ccc(Oc3ccccc3)cc1)C2 (centres undefined)	CC50 at 48 h [3]: 10.9 µM; selectivity ratio [7]: 5.89

Source: ChEMBL document CHEMBL4765341, “A series of octahydroquinazoline-5-ones as novel inhibitors against dengue virus” (Eur J Med Chem, 2020)
